In patent US6534520B2, “Antiviral compounds” (priority 1997, dated 2003):

Tests used:
uninfected cells [1] = assay: Cytotoxicity run with the Influenza A test; format: cell-based
Description: (§1) Methods For Assay Of Cytotoxicity
(§2) In the CPE inhibition test, two wells of uninfected cells treated with each concentration of test Compound are run in parallel with the infected, treated wells. At the time CPE is determined microscopically, the toxicity control cells are also examined microscopically for any changes in cell appearance compared to normal control cells run in the same plate. These changes may be enlargement, granularity, cells with ragged edges, a filmy appearance, rounding, detachment from the surface of the well, or other changes. These changes are given a designation of T (100% toxic), PVH (partially toxic-very heavy-80%), PH (partially toxic-heavy-60%), P (partially toxic-40%), PS (partially toxic-slight-20%), or 0 (no toxicity-0%), conforming to the degree of cytotoxicity seen.
(§3) In the neutral red dye uptake phase of the antiviral test described above, the two toxicity control wells also receive neutral red and the degree of color intensity is determined spectrophotometrically. A neutral red CC50 (NRCC50) is subsequently determined.
(§4) C. ^3H Thymidine Uptake Assay
(§5) Flat bottom 96 well plates are plated with 5X10E3 Vero-34 cells/well and 1X10E4 Hs68 or Wi-38 cells/well respectively and incubated overnight at 37° C. and 5% CO2/air. After incubation, the supernatant medium is removed and replaced with test Compound dilutions in 2% DMEM (150 ul). The cells are then incubated 48 hours in a 5% CO2 incubator at 37° C.
(§6) 50 μl/well of 10 uCi/ml solution of [3H]-methyl thymidine (specific activity of approx. 2Ci/mmol) is added to the culture medium and incubated overnight (18 hours) in a 5% CO2 incubator at 37° C.
(§7) Cells are then collected onto a fiberglass filter (Printed Filtermat A 1450-421 Wallac) with a Tomtec cell harvester. Suspended cells are collected directly onto filter while for adherent cells, the medium is first removed, then the cells washed with PBS and trypsinized for 2-3 minutes (50 μl trypsin/well) before collecting.
(§8) Filters are dried for 1 hour at 37-40° C. and then placed into bags (1450-microbeta #1450-432 Wallac) with 4.5 ml of Betascint and counts obtained with Microbeta 1450 Wallac (protocol 1).
(§9) The percent of cell proliferation is determined by comparison to the control (no test Compound) and thereby establishing 50% inhibitory concentration is established.

HIVTEKI = assay: Anti-HIV activity against HIVTEKI in PBMCs; details: HIVTEKI, PBMCs
PBMCs = assay: Cytotoxicity in PBMCs (anti-HIV tests); format: cell-based; details: for HIVTEKI (PBMCs) CC50: HIVTEKI columns
HSV-1 = assay: Antiviral activity against HSV-1 (CPE inhibition / neutral red); format: cell-based, herpes simplex virus type 1; details: HSV-1
Rhinovirus (RV) = assay: Antiviral activity against Rhinovirus (CPE inhibition / neutral red); format: cell-based; details: Rhinovirus
HSV-2 = assay: Antiviral activity against HSV-2 (CPE inhibition / neutral red); format: cell-based, herpes simplex virus type 2; details: HSV-2
uninfected cells [2] = test system: uninfected cells
Adenovirus = assay: Antiviral activity against Adenovirus (CPE inhibition / neutral red); format: cell-based; details: Adenovirus
uninfected cells [3] = test system: uninfected cells; remark: listed apart in the source
[4] = test system: Respiratory Syncitial Virus (RSV); assay: Antiviral activity against RSV (CPE inhibition / neutral red); format: cell-based; details: RSV
Influenza A = assay: microbe, parasite or virus in culture; format: cell-based
Parainfluenza = assay: Antiviral activity against Parainfluenza (CPE inhibition / neutral red); format: cell-based; details: Parainfluenza
uninfected cells [5] = assay: Cytotoxicity run with the Influenza B test; format: cell-based
Description: as §1, §2, §3, §4, §5, §6, §7, §8, §9

uninfected cells [6] = test system: uninfected cells; remark: listed apart in the source
Influenza B = assay: microbe, parasite or virus in culture; format: cell-based; details: Influenza B
HIVROJO = assay: Anti-HIV activity against HIVROJO in PBMCs; format: cell-based; details: HIVROJO, PBMCs
uninfected cells [7] = test system: uninfected cells; remark: listed apart in the source
uninfected cells [8] = test system: uninfected cells; remark: listed apart in the source
uninfected cells [9] = assay: Cytotoxicity run with the Adenovirus test; details: cytotoxicity, Adenovirus test

CCCOc1ccccc1CNC(=O)c1ccc2cnccc2n1 [#26, N-(2-propoxybenzyl)-2-[1,6]naphthyridine-2-carboxamide]
INFLUENZA A CC50 (uninfected cells [1]): 5.6 µg/mL
HIVTEKI (PBMCs) IC50 (HIVTEKI): 0.3 µg/mL
HIVROJO (PBMCs) CC50 (PBMCs): 6.0 µg/mL
HSV-1 IC50 (HSV-1): 0.36 µg/mL
RV IC50 (Rhinovirus (RV)): < 0.01 µg/mL
HSV-2 IC50 (HSV-2): 0.19 µg/mL
PARAINFLUENZA CC50 (uninfected cells [2]): 2 µg/mL
ADENOVIRUS IC50 (Adenovirus): 4 µg/mL
HSV-1 CC50 (uninfected cells [3]): 3.2 µg/mL
RSV IC50 [4]: 4 µg/mL
INFLUENZA A IC50 (Influenza A): 5.6 µg/mL
PARAINFLUENZA IC50 (Parainfluenza): 4 µg/mL
INFLUENZA B CC50 (uninfected cells [5]): 5.6 µg/mL
RSV CC50 (uninfected cells [6]): 3 µg/mL
INFLUENZA B IC50 (Influenza B): 3.2 µg/mL
HIVROJO (PBMCs) IC50 (HIVROJO): 4.1 µg/mL
HSV-2 CC50 (uninfected cells [7]): 1.9 µg/mL
RV CC50 (uninfected cells [8]): 4 µg/mL

COc1ccccc1CNC(=O)C1=Cc2ccncc2CC1 [#32, 7,8-dihydroisoquinolin-6-carboxylic acid 2′-methoxybenzylamide]
INFLUENZA A CC50 (uninfected cells [1]): 67 µg/mL
HIVROJO (PBMCs) CC50 (PBMCs): >64 µg/mL
HIVTEKI (PBMCs) CC50 (PBMCs): >64 µg/mL
HSV-1 IC50 (HSV-1): 5.5 µg/mL
RV IC50 (Rhinovirus (RV)): 10 µg/mL
HSV-2 IC50 (HSV-2): 15 µg/mL
PARAINFLUENZA CC50 (uninfected cells [2]): 20 µg/mL
ADENOVIRUS IC50 (Adenovirus): > 100 µg/mL
HSV-1 CC50 (uninfected cells [3]): 14 µg/mL
RSV IC50 [4]: 50 µg/mL
INFLUENZA A IC50 (Influenza A): 60 µg/mL
ADENOVIRUS CC50 (uninfected cells [9]): 80 µg/mL
RSV CC50 (uninfected cells [6]): 30 µg/mL
INFLUENZA B IC50 (Influenza B): 56 µg/mL
HIVROJO (PBMCs) IC50 (HIVROJO): 45 µg/mL
HSV-2 CC50 (uninfected cells [7]): 29.0 µg/mL
RV CC50 (uninfected cells [8]): 25 µg/mL

CC(C)Oc1ccccc1NC(=O)Nc1ccc2cnccc2n1 [#46, 1-(2-iso-propoxy-phenyl)-3-[1,6]naphthyridin-2-yl-urea;]
INFLUENZA A CC50 (uninfected cells [1]): 19 µg/mL
HIVTEKI (PBMCs) IC50 (HIVTEKI): 4.3 µg/mL
HIVROJO (PBMCs) CC50 (PBMCs): >100 µg/mL
HIVTEKI (PBMCs) CC50 (PBMCs): >100 µg/mL
HSV-1 IC50 (HSV-1): >100 µg/mL
RV IC50 (Rhinovirus (RV)): 1 µg/mL
PARAINFLUENZA CC50 (uninfected cells [2]): 30 µg/mL
ADENOVIRUS IC50 (Adenovirus): > 30 µg/mL
HSV-1 CC50 (uninfected cells [3]): >100 µg/mL
RSV IC50 [4]: >30 µg/mL
INFLUENZA A IC50 (Influenza A): >32 µg/mL
PARAINFLUENZA IC50 (Parainfluenza): > 30 µg/mL
ADENOVIRUS CC50 (uninfected cells [9]): > 30 µg/mL
INFLUENZA B CC50 (uninfected cells [5]): > 22 µg/mL
RSV CC50 (uninfected cells [6]): 30 µg/mL
INFLUENZA B IC50 (Influenza B): > 32 µg/mL
HIVROJO (PBMCs) IC50 (HIVROJO): 3.2 µg/mL
RV CC50 (uninfected cells [8]): > 30 µg/mL

COc1ccccc1CNC(=O)c1nc2ccncc2s1 [#59, Thiazolo[5,4-c]pyridine-2-carboxylic acid-2-methoxybenzylamide]
HCMV IC50 (HCMV): ˜10 μg/ml

C[C@H](NC(=O)c1nc2ccncc2s1)c1ccccc1 [#62, Thiazolo[5,4-c]pyridine-2-carboxylic acid(1(S)-phenyl-ethyl)amide]
HCMV IC50 (HCMV): ˜1 μg/ml
